Assay results reported in EP0052437A1, “Antibacterial compounds, processes for their preparation and compositions containing them” (BEECHAM GROUP PLC, priority 1980, dated 1982).
Converted amounts (≈) assume the structure as drawn.

Key:
Assay type in all cases: cell-based
[1] = test system: M. dispar NCTC 10125; assay: Anti-mycoplasmal in vitro MIC; conditions: 144 h, Friis broth solidified with 0.9% agarose, 6 days incubation at 37°C
[2] = test system: M. suipneumoniae PW/C/210; assay: Anti-mycoplasmal in vitro MIC; conditions: Mesomycoplasma hyopneumoniae, 144 h, Friis broth solidified with 0.9% agarose, 6 days incubation at 37°C
[3] = test system: M. hyosynoviae ATCC 25591; assay: Anti-mycoplasmal in vitro MIC; conditions: 144 h, Friis broth solidified with 0.9% agarose, 6 days incubation at 37°C
[4] = test system: M. bovigenitalium ATCC 14173; assay: Anti-mycoplasmal in vitro MIC; conditions: 144 h, Friis broth solidified with 0.9% agarose, 6 days incubation at 37°C
[5] = test system: M. gallisepticum S6; assay: Anti-mycoplasmal in vitro MIC; conditions: Mycoplasmoides gallisepticum, 144 h, Friis broth solidified with 0.9% agarose, 6 days incubation at 37°C
[6] = test system: Bord. bronchiseptica BO9; assay: Veterinary bacteria MIC; conditions: Bordetella bronchiseptica, Diagnostic Sensitivity Test Agar, 18 hours at 37°C
Procedure: (§1) The values were determined using a two fold serial dilutions.in Diagnostic Sensitivity Test Agar with an inoculum of 10^4 organisms and incubation for 18 hours at 37°C.

[7] = test system: S. dublin S7; assay: Veterinary bacteria MIC; conditions: Salmonella enterica, Diagnostic Sensitivity Test Agar, 18 hours at 37°C
Procedure: as §1

[8] = test system: Bord. bronchiseptica BO8; assay: Veterinary bacteria MIC; conditions: Bordetella bronchiseptica, Diagnostic Sensitivity Test Agar, 18 hours at 37°C
Procedure: as §1

[9] = test system: Erysipelothrix rhusiopathiae NCTC 8163; assay: Veterinary bacteria MIC; conditions: NCTC8163, Diagnostic Sensitivity Test Agar, 18 hours at 37°C
Procedure: as §1

[10] = test system: Strep. agalactiae SPA1; assay: Veterinary bacteria MIC; conditions: Streptococcus agalactiae, Diagnostic Sensitivity Test Agar, 18 hours at 37°C
Procedure: as §1

[11] = test system: E. Coli NCTC 10418; assay: Veterinary bacteria MIC; conditions: Escherichia coli, NCTC10418, Diagnostic Sensitivity Test Agar, 18 hours at 37°C
Procedure: as §1

[12] = test system: Past. multocida PA1; assay: Veterinary bacteria MIC; conditions: Pasteurella multocida, Diagnostic Sensitivity Test Agar, 18 hours at 37°C
Procedure: as §1

[13] = test system: Past. multocida PA2; assay: Veterinary bacteria MIC; conditions: Pasteurella multocida, Diagnostic Sensitivity Test Agar, 18 hours at 37°C
Procedure: as §1

[14] = test system: S. typhimurium S18; assay: Veterinary bacteria MIC; conditions: Salmonella enterica, Diagnostic Sensitivity Test Agar, 18 hours at 37°C
Procedure: as §1

[15] = test system: Strep. suis (group D) SPS11; assay: Veterinary bacteria MIC; conditions: Streptococcus suis, Diagnostic Sensitivity Test Agar, 18 hours at 37°C
Procedure: as §1

[16] = test system: Staph. aureus B4; assay: Veterinary bacteria MIC; conditions: Staphylococcus aureus, Diagnostic Sensitivity Test Agar, 18 hours at 37°C
Procedure: as §1

[17] = test system: Staph. aureus 152; assay: Veterinary bacteria MIC; conditions: Staphylococcus aureus, Diagnostic Sensitivity Test Agar, 18 hours at 37°C
Procedure: as §1

[18] = test system: Corynebacterium pyogenes CY1; assay: Veterinary bacteria MIC; conditions: Trueperella pyogenes, Diagnostic Sensitivity Test Agar, 18 hours at 37°C
Procedure: as §1

[19] = test system: Strep. uberis SPU1; assay: Veterinary bacteria MIC; conditions: Streptococcus uberis, Diagnostic Sensitivity Test Agar, 18 hours at 37°C
Procedure: as §1

[20] = test system: Staph. aureus Oxford; assay: Veterinary bacteria MIC; conditions: Staphylococcus aureus, Diagnostic Sensitivity Test Agar, 18 hours at 37°C
Procedure: as §1

[21] = test system: E. Coli E1; assay: Veterinary bacteria MIC; conditions: Escherichia coli, Diagnostic Sensitivity Test Agar, 18 hours at 37°C
Procedure: as §1

[22] = test system: Strep. dysgalactiae SPD1; assay: Veterinary bacteria MIC; conditions: Streptococcus dysgalactiae, Diagnostic Sensitivity Test Agar, 18 hours at 37°C
Procedure: as §1

[23] = test system: Past. haemolytica PA5; assay: Veterinary bacteria MIC; conditions: Mannheimia haemolytica, Diagnostic Sensitivity Test Agar, 18 hours at 37°C
Procedure: as §1

[24] = test system: M. suipneumoniae LABER; assay: Anti-mycoplasmal in vitro MIC; conditions: Mesomycoplasma hyopneumoniae, 144 h, Friis broth solidified with 0.9% agarose, 6 days incubation at 37°C
[25] = test system: Neisseria catarrhalis 1502; assay: Human bacteria MIC; conditions: nutrient agar with 5% chocolated horse blood, 18 hours at 37°C
Procedure: (§2) The values were determined by serial dilutions in nutrient agar with 5% chocolated horse blood after incubations for 18 hours at 37 °C.

[26] = test system: E. Coli NCTC 10418; assay: Human bacteria MIC; conditions: Escherichia coli, NCTC10418, nutrient agar with 5% chocolated horse blood, 18 hours at 37°C
Procedure: as §2

[27] = test system: Ps. aeruginosa NCTC 10662; assay: Human bacteria MIC; conditions: Pseudomonas aeruginosa, NCTC10662, nutrient agar with 5% chocolated horse blood, 18 hours at 37°C
Procedure: as §2

[28] = test system: Staph. aureus Russell; assay: Human bacteria MIC; conditions: Staphylococcus aureus, nutrient agar with 5% chocolated horse blood, 18 hours at 37°C
Procedure: as §2

[29] = test system: Strep. 641848-C; assay: Human bacteria MIC; conditions: nutrient agar with 5% chocolated horse blood, 18 hours at 37°C
Procedure: as §2

[30] = test system: K. aerogenes A; assay: Human bacteria MIC; conditions: Klebsiella aerogenes, nutrient agar with 5% chocolated horse blood, 18 hours at 37°C
Procedure: as §2

[31] = test system: Staph. aureus Oxford; assay: Human bacteria MIC; conditions: Staphylococcus aureus, nutrient agar with 5% chocolated horse blood, 18 hours at 37°C
Procedure: as §2

[32] = test system: Staph. aureus W2827; assay: Human bacteria MIC; conditions: Staphylococcus aureus, nutrient agar with 5% chocolated horse blood, 18 hours at 37°C
Procedure: as §2

[33] = test system: Bacillus subtilis 6633; assay: Human bacteria MIC; conditions: nutrient agar with 5% chocolated horse blood, 18 hours at 37°C
Procedure: as §2

[34] = test system: Pasteurella multocida 1633; assay: Human bacteria MIC; conditions: nutrient agar with 5% chocolated horse blood, 18 hours at 37°C
Procedure: as §2

[35] = test system: Sarcina lutea 8340; assay: Human bacteria MIC; conditions: Micrococcus luteus, nutrient agar with 5% chocolated horse blood, 18 hours at 37°C
Procedure: as §2

[36] = test system: Strep. faecalis I; assay: Human bacteria MIC; conditions: Enterococcus faecalis, nutrient agar with 5% chocolated horse blood, 18 hours at 37°C
Procedure: as §2

[37] = test system: P. mirabilis 889; assay: Human bacteria MIC; conditions: Proteus mirabilis, nutrient agar with 5% chocolated horse blood, 18 hours at 37°C
Procedure: as §2

[38] = test system: E. coli ESS; assay: Human bacteria MIC; conditions: Escherichia coli, nutrient agar with 5% chocolated horse blood, 18 hours at 37°C
Procedure: as §2

[39] = test system: Corynebacterium xerosis 9755; assay: Human bacteria MIC; conditions: nutrient agar with 5% chocolated horse blood, 18 hours at 37°C
Procedure: as §2

**Q.** Which MIC [1] does the source give for `C/C(=C\C(=O)OCc1cc(C#N)cc(C#N)c1)CC1OCC(CC2OC2C(C)C(C)O)C(O)C1O` (stereo not drawn) [Example 6, 3,5-Dicyanobenzyl monate A] here?
**A.** Its MIC is 0.05 µg/mL (≈ 0.103 µM).

**Q.** And the MIC [2]?
**A.** The MIC was 0.05 µg/mL (≈ 0.103 µM).

**Q.** What about the MIC [3] of the same compound?
**A.** The MIC was 0.1 µg/mL (≈ 0.206 µM).

**Q.** What about the MIC [4] of the same compound?
**A.** Its MIC is 0.025 µg/mL (≈ 0.0516 µM).

**Q.** And the MIC [5]?
**A.** Its MIC is 2.5 µg/mL (≈ 5.16 µM).

**Q.** What about the MIC [6] of the same compound?
**A.** The MIC was 40 µg/mL (≈ 82.6 µM).

**Q.** And the MIC [7]?
**A.** Its MIC is greater than 80 µg/mL.

**Q.** And the MIC [8]?
**A.** The MIC was 80 µg/mL (≈ 165 µM).

**Q.** And the MIC [9]?
**A.** The MIC was 80 µg/mL (≈ 165 µM).

**Q.** And the MIC [10]?
**A.** Its MIC is 0.625 µg/mL (≈ 1.29 µM).

**Q.** And the MIC [11]?
**A.** The MIC was greater than 80 µg/mL.

**Q.** And the MIC [12]?
**A.** Its MIC is 5 µg/mL (≈ 10.3 µM).

**Q.** What about the MIC [13] of the same compound?
**A.** Its MIC is 0.625 µg/mL (≈ 1.29 µM).

**Q.** And the MIC [14]?
**A.** Its MIC is greater than 80 µg/mL.

**Q.** What about the MIC [15] of the same compound?
**A.** The MIC was 40 µg/mL (≈ 82.6 µM).

**Q.** What about the MIC [16] of the same compound?
**A.** Its MIC is 5 µg/mL (≈ 10.3 µM).

**Q.** And the MIC [17]?
**A.** The MIC was 5 µg/mL (≈ 10.3 µM).

**Q.** What about the MIC [18] of the same compound?
**A.** The MIC was greater than 80 µg/mL.

**Q.** And the MIC [19]?
**A.** Its MIC is 0.312 µg/mL (≈ 0.644 µM).

**Q.** And the MIC [20]?
**A.** The MIC was 5 µg/mL (≈ 10.3 µM).

**Q.** What about the MIC [21] of the same compound?
**A.** The MIC was greater than 80 µg/mL.

**Q.** What about the MIC [22] of the same compound?
**A.** The MIC was 0.625 µg/mL (≈ 1.29 µM).

**Q.** And the MIC [23]?
**A.** The MIC was 10 µg/mL (≈ 20.6 µM).

**Q.** And the MIC [24]?
**A.** Its MIC is 0.05 µg/mL (≈ 0.103 µM).

**Q.** What about the MIC [25] of the same compound?
**A.** The MIC was 0.5 µg/mL (≈ 1.03 µM).

**Q.** What about the MIC [26] of the same compound?
**A.** Its MIC is greater than 100 µg/mL.

**Q.** What about the MIC [27] of the same compound?
**A.** Its MIC is greater than 100 µg/mL.

**Q.** What about the MIC [28] of the same compound?
**A.** The MIC was 5 µg/mL (≈ 10.3 µM).

**Q.** And the MIC [29]?
**A.** The MIC was 1 µg/mL (≈ 2.06 µM).

**Q.** What about the MIC [30] of the same compound?
**A.** Its MIC is greater than 100 µg/mL.

**Q.** And the MIC [31]?
**A.** The MIC was 2.5 µg/mL (≈ 5.16 µM).

**Q.** What about the MIC [32] of the same compound?
**A.** Its MIC is 5 µg/mL (≈ 10.3 µM).

**Q.** What about the MIC [33] of the same compound?
**A.** Its MIC is 2.5 µg/mL (≈ 5.16 µM).

**Q.** What about the MIC [34] of the same compound?
**A.** The MIC was 2.5 µg/mL (≈ 5.16 µM).

**Q.** And the MIC [35]?
**A.** Its MIC is greater than 100 µg/mL.

**Q.** And the MIC [36]?
**A.** Its MIC is 100 µg/mL (≈ 206 µM).

**Q.** What about the MIC [37] of the same compound?
**A.** Its MIC is 100 µg/mL (≈ 206 µM).

**Q.** And the MIC [38]?
**A.** Its MIC is 5 µg/mL (≈ 10.3 µM).

**Q.** What about the MIC [39] of the same compound?
**A.** Its MIC is greater than 100 µg/mL.
